Measurements taken from patent US20210386829A1, “COMPOSITIONS AND METHODS FOR MODULATING CGRP SIGNALING TO REGULATE INNATE LYMPHOID CELL INFLAMMATORY RESPONSES” (The Broad Institute, Inc., priority 2018, published 2021).
Entries after “also recorded” stand apart in the source; their conditions may differ.

Assays:
lung ILCs [1] = assay: culture of sort-purified lung ILCs with IL-7, IL-33 or IL-25+NMU with or without CGRP (qPCR, LegendPlex, intracellular cytokine staining); format: cell-based, mouse
Description: (§1) ILC in vitro culture. For in vitro experiments 5,000 ILCs/well were cultured in a 96 well round bottom plate with 20 ng/ml IL-7 (R&D Systems), 200 ng/ml IL-25 (R&D Systems) or 20 ng/ml, 2 ng/ml or 0.2 ng/ml IL-33 (BioLegend) with or without 1 μg/ml Neuromedin U (US Biological). In some cases purified CD90.2^+ lung cells were first labeled with CellTrace Violet (Thermo Fisher Scientific), then sorted as described above, and cultured for 3 days under the indicated conditions.
Quantitative real-time PCR. RNA was isolated using RNeasy Plus Mini Kit (Qiagen) and reverse transcribed to cDNA with iScript cDNA Synthesis Kit (Bio-Rad). Gene expression was analyzed by quantitative real-time PCR on a ViiA7 System (Thermo Fisher Scientific) using TaqMan Fast Advanced Master Mix (Thermo Fisher Scientific) with the following primer/probe sets: Il5 (Mm00439646_m1), Il13 (Mm00434204_m1), Il17rb (Mm00444709_m1), Nmur1 (Mm04207994_m1), Nmur2 (Mm00600704_m1), Nmu (Mm00479868_m1) and Actb (Applied Biosystems). Expression values were calculated relative to Actb detected in the same sample by duplex qPCR.
Cytokine quantification. Cytokine concentrations in BAL fluid, lung and supernatant of in vitro ILC cultures were analyzed by the LegendPlex Mouse Th Cytokine Panel (13-plex) (BioLegend) according to the manufacturer's instructions and analyzed on a FACS Calibur (BD Biosciences).
Culture of innate lymphoid cells. Sort-purified innate lymphoid cells (ILCs) were cultured under sterile conditions in complete medium in a humidified incubator at 37° C. and 10% CO2. ILCs were plated at a density of 3,000-5,000 ILCs per well in a 96 well round-bottom plate in cell culture medium with 20 ng/ml IL-7. Depending on the experiment, different combinations of 200 ng/ml IL-25, 200 ng/ml IL-33, 1 ug/ml NMU and 100 nM CGRP were added either at start or after overnight culture with 20 ng/ml IL-7. […]
For flow cytometric analysis, lung cells were transferred into a 96 well V-bottom plate and stained with surface antibodies for 20 min at 4° C. in the dark. Cells were washed twice with DPBS containing 2% fetal bovine serum and transferred into 1.2 ml tubes for analysis by flow cytometry. For intracellular cytokine staining, cells were incubated in complete cell culture medium with 50 ng/ml phorbol 12-myristate 13-acetate (Sigma-Aldrich), 1 uM ionomycin (Sigma-Aldrich) and GolgiStop (Cat #554724; BD Biosciences) in a humidified incubator at 37° C. and 10% CO2. After 5 hours, cells were transferred into 96 well V-bottom plate, stained with Fixable Viability Dye eFluor 506 (Cat #65-0866-14; Thermo Fisher) and surface antibodies for 20 min at 4° C. in the dark and washed twice with DPBS containing 2% fetal bovine serum. Then, cells were incubated with BD Cytofix/Cytoperm Buffer (Cat #51-2090KZ; BD Biosciences) for 20 min, followed by a wash with BD Perm/Wash Buffer (Cat #51-2091KZ; BD Biosciences). Subsequently, cells were incubated with antibodies targeting intracellular proteins diluted in BD Perm/Wash Buffer for 20 min and after two wash steps, transferred into 1.2 ml tubes for analysis by flow cytometry. For ki67 staining, cells were stained for surface antibodies as described above, fixed with a solution of Fixation/Permeabilization Concentrate (Cat #00-5123-43; Invitrogen) and Fixation/Perm Diluent (Cat #00-5223-56; Invitrogen) for 20 min, washed with Permeabilization Buffer (Cat #00-8333-56; Invitrogen). Then, cells were incubated with ki67 antibody diluted in Permeabilization Buffer for 20 min, washed and transferred into FACS tubes. Cells were analyzed on a BD LSRFortessa (BD Biosciences) flow cytometer with 5 lasers (355 nm, 405 nm, 488 nm, 561 nm and 640 nm). Data was analyzed using FlowJo v10.5.0 software and cell populations were gated as described previously (Wallrapp 2017).
RNA isolation and cDNA synthesis. […]

lung ILCs [2] = assay: CellTrace Violet proliferation assay of sort-purified lung ILCs; format: cell-based, mouse; conditions: 3 days
Description: as §1
Proliferation assay. Lung cells were isolated and enriched for CD90.2 cells as described above, followed by labeling with CellTrace Violet (Cat #C34557; Thermo Fisher Scientific) according to manufacturer's instructions and subsequently stained with antibodies. After 3-day culture of sort-purified ILCs with 20 ng/ml IL-7 either alone or in combination with 200 ng/ml IL-33, 100 pM CGRP or 100 nM CGRP followed by staining, expression of CellTrace Violet in live (7AAD−) ILCs was analyzed on a BD LSRFortessa (BD Biosciences).

[3] = IL-7+CGRP vs IL-7 alone, 6 hours
[4] = IL-33+CGRP vs IL-33 alone, 6 hours
[5] = IL-33+CGRP vs IL-33 alone, 3 days
[6] = IL-33+CGRP vs IL-33 alone, 3 days culture

“CGRP: neuropeptide calcitonin gene-related peptide (encoded by Calca), ligand of the Ramp1/Calcrl receptor; given at 100 nM in vitro, 6.65 ug nasally” was tested, and the “Il5 expression in ILC2s (qPCR)” value (lung ILCs [1]; [3]) was “upregulated”, the “Il13 expression in ILC2s (qPCR)” value (lung ILCs [1]; [3]) was “downregulated” and the “amphiregulin (Areg) expression in ILC2s (qPCR)” value (lung ILCs [1]; [3]) was “trend of increased expression”. For the same substance, the “type 2 cytokine (IL-5, IL-13) production at mRNA and protein level in ILCs” value (lung ILCs [1]; IL-25+NMU+CGRP vs IL-25+NMU, 3 days) was “significantly reduced”, the “Areg expression in ILC2s (qPCR)” value (lung ILCs [1]; [4]) was “significantly increased” and the “Il5 expression in ILC2s (qPCR)” value (lung ILCs [1]; [4]) was “significantly increased”. The “Il13 expression in ILC2s (qPCR)” value (lung ILCs [1]; [4]) was “significantly decreased”, the “IL-13 produced per cell (MFI)” value (lung ILCs [1]; [5]) was “less” and the “amount of IL-5 expressed per cell (MFI)” value (lung ILCs [1]; [5]) was “significant decreases”. For the same substance, the “frequency of IL-5-producing ILCs (flow cytometry)” value (lung ILCs [1]; [5]) was “significant decreases”, the “frequency of IL-13+ ILCs (flow cytometry)” value (lung ILCs [1]; [5]) was “lower” and the “Areg expression in ILCs (qPCR)” value (lung ILCs [1]; [6]) was “increased”. For the same substance, the “IL-5 production at RNA and protein level in ILCs” value (lung ILCs [1]; [6]) was “reduces; also recorded: significantly reduced”, the “IL-13 production at RNA and protein level in ILCs” value (lung ILCs [1]; [6]) was “reduces; also recorded: significantly reduced; also recorded: remains repressed” and the “IL-5 protein production (intracellular cytokine staining)” value (lung ILCs [1]; short-term (8 hours) CGRP+IL33 vs IL-33 alone) was “induced”. For the same substance, the “frequency of IL-13-positive ILC2s (intracellular cytokine staining)” value (lung ILCs [1]; short-term (8 hours) treatment with CGRP+IL33) was 2%, the “IL-33-activated ILCs that proliferated” value (lung ILCs [2]; IL-7+IL-33 in the presence of 100 nM CGRP) was “less than 10%” and the “IL-33-induced proliferation of ILCs” value (lung ILCs [2]; IL-33 with 100 pM or 100 nM CGRP vs IL-33 alone) was “inhibits IL-33-induced proliferation in a dose-dependent manner; also recorded: strongly inhibited”.
